Patent US20240325398A1, “COMBINATION THERAPIES” (Infinity Pharmaceuticals, Inc., priority 2014, published 2024)

How the values were obtained:
KARPAS-422 = assay: Combination study, ATPLite 72 h, dose matrix (Synergy Score, CI50); conditions: combination with Compound 1, 72 h
NCI-H929 = assay: as above; conditions: combination with Compound 1
RPMI-8226 = assay: as above; conditions: combination with Compound 1
Procedure: (§1) Cells are thawed from a liquid nitrogen preserved state. Once cells have been expanded and divide at their expected doubling times, screening begins. Cells are seeded in growth media in either black 1536-well or 384-well tissue culture treated plates. Cells are then equilibrated in assay plates via centrifugation and placed in incubators attached to the Dosing Modules at 37° C. for 24 hours before treatment. […] These Tzero (To) plates are read using ultra-sensitive luminescence on Envision plate readers (Perkin Elmer). Treated assay plates are incubated with compound for 72 hours. After 72 hours, plates are developed for endpoint analysis using ATPLite. All data points are collected via automated processes, quality controlled and analyzed using Zalicus software.
(§2) where T is treated cell count and V is untreated (vehicle) cell count (at 72 hours). I ranges from 0% (when T=V) to 100% (when T=0). […] The measure of effect in the experiment can be the inhibition of cellular response relative to the untreated level (vehicle alone). […] The inhibition ranges from 0% at the untreated level to 100% when T=0. Inhibition levels are negative for agents that actually increase levels. Other effect measures, such as an activity ratio r=T/V may be more appropriate for some assays. When activity ratios (e.g, fold increase over stimulated control) are being used, the effect can be measured using an induction 1=ln(T/V). With this definition, all effect expressions are the same as for inhibition.
(§3) Growth Inhibition (GI) is used as a measure of cell viability. […] A GI reading of 100% represents complete growth inhibition—T72 compound-treated and T0 vehicle signals are matched. […] A GI reading of 200% represents complete death of all cells in the culture well. Compounds reaching an activity plateau of GI 200% are considered cytotoxic. GI is calculated by applying the following test and equation:
(§4) Combination analysis data were collected in a 6×6 dose matrix. Synergy is calculated by comparing a combination's response to those of its single compound, against the drug-with-itself dose-additive reference model. Deviations from dose additivity may be assessed visually on an isobologram or numerically with a Combination Index (CI). […] Additive effect is CI=1.0. […] Antagonistic effect is CI>1.0.
(§5) To measure combination effects in excess of Loewe additivity, a scalar measure to characterize the strength of synergistic interaction termed the Synergy Score is devised. The Synergy Score is calculated as:
(§6) The fractional inhibition for each component agent and combination point in the matrix is calculated relative to the median of all vehicle-treated control wells. The Synergy Score equation integrates the experimentally-observed activity volume at each point in the matrix in excess of a model surface numerically derived from the activity of the component agents using the Loewe model for additivity. Additional terms in the Synergy Score equation (above) are used to normalize for various dilution factors used for individual agents and to allow for comparison of synergy scores across an entire experiment. The inclusion of positive inhibition gating or an Idata multiplier removes noise near the zero effect level, and biases results for synergistic interactions at that occur at high activity levels.
(§7) Loewe Volume (Loewe Vol) is used to assess the overall magnitude of the combination interaction in excess of the Loewe additivity model. Loewe Volume is particularly useful when distinguishing synergistic increases in a phenotypic activity (positive Loewe Volume) versus synergistic antagonisms (negative Loewe Volume). […] This model defines additivity as a non-synergistic combination interaction where the combination dose matrix surface should be indistinguishable from either drug crossed with itself.

Farage = assay: as above; conditions: combination with Compound 1; Farage; 72 h
DOHH-2 = assay: as above; conditions: combination with Compound 1, 72 h
HH = assay: as above; assay type: cell-based; conditions: combination with Compound 1
Procedure: The method is described as follows.
Additive effect is CI=1.0. […] Antagonistic effect is CI>1.0.
The Synergy Score is calculated as: […]

HBL-1 = assay: as above; conditions: combination with Compound 1, 72 h
Jeko-1 = assay: as above; conditions: combination with Compound 1
GRANTA-519 = assay: as above; conditions: combination with Compound 1
U-2932 = assay: as above; conditions: combination with Compound 1, 72 h
RL = assay: as above; conditions: combination with Compound 1, 72 h
[1] = as above; conditions: combination with Compound 1; OPM-2
Procedure: as §1, §2, §3, §4, §5, §6, §7

OMP-2 = assay: as above; conditions: combination with Compound 1; OPM-2
Procedure: as §1, §2, §3, §4, §5, §6, §7

OCI-Ly3 = assay: as above; conditions: combination with Compound 1; OCI-Ly3; 72 h
SU-DHL-10-epst = assay: as above; conditions: combination with Compound 1, 72 h
OCI-Ly7 = assay: as above; conditions: combination with Compound 1, 72 h
KARPAS-299 = assay: as above; conditions: combination with Compound 1
SU-DHL-4-epst = assay: as above; conditions: combination with Compound 1, 72 h
TMD8 = assay: as above; conditions: combination with Compound 1; TMD8; 72 h
WSU-NHL = assay: as above; conditions: combination with Compound 1, 72 h
Mino = assay: as above; conditions: combination with Compound 1

## CC(C)C[C@H](NC(=O)[C@H](CCc1ccccc1)NC(=O)CN1CCOCC1)C(=O)N[C@@H](Cc1ccccc1)C(=O)N[C@@H](CC(C)C)C(=O)[C@@]1(C)CO1 [carfilzomib, (S)-4-methyl-N—((S)-1-(((S)-4-methyl-1-((R)-2-methyloxiran-2-yl)-1-oxopentan-2-yl)amino)-1-oxo-3-phenylpropan-2-yl)-2-((S)-2-(2-morpholinoacetamido)-4-phenylbutanamido)pentanamide]
KARPAS-422
  CI50 growth inhibition: T (T=0.5 to <0.7)
  CI50 inhibition: U (U=0.7 to <1)
  Synergy Score growth inhibition: A3 (A3=>3)
  Synergy Score inhibition: A1 (A1=0.0001 to <1)
NCI-H929
  CI50 growth inhibition: U (U=0.7 to <1)
  CI50 inhibition: W (W=≥1)
  Synergy Score growth inhibition: A3 (A3=>3)
  Synergy Score inhibition: A1 (A1=0.0001 to <1)
RPMI-8226
  CI50 growth inhibition: U (U=0.7 to <1)
  CI50 inhibition: W (W=≥1)
  Synergy Score growth inhibition: A3 (A3=>3)
  Synergy Score inhibition: A1 (A1=0.0001 to <1)
Farage
  CI50 growth inhibition: U (U=0.7 to <1)
  CI50 inhibition: U (U=0.7 to <1)
  Synergy Score growth inhibition: A3 (A3=>3)
  Synergy Score inhibition: A1 (A1=0.0001 to <1)
DOHH-2
  CI50 growth inhibition: U (U=0.7 to <1)
  CI50 inhibition: U (U=0.7 to <1)
  Synergy Score growth inhibition: A3 (A3=>3)
  Synergy Score inhibition: A1 (A1=0.0001 to <1)
HH
  CI50 growth inhibition: T (T=0.5 to <0.7)
  CI50 inhibition: T (T=0.5 to <0.7)
  Synergy Score growth inhibition: A3 (A3=>3)
  Synergy Score inhibition: A1 (A1=0.0001 to <1)
HBL-1
  CI50 growth inhibition: T (T=0.5 to <0.7)
  CI50 inhibition: U (U=0.7 to <1)
  Synergy Score growth inhibition: A1 (A1=0.0001 to <1)
  Synergy Score inhibition: A1 (A1=0.0001 to <1)
Jeko-1
  CI50 growth inhibition: U (U=0.7 to <1)
  CI50 inhibition: U (U=0.7 to <1)
  Synergy Score growth inhibition: A1 (A1=0.0001 to <1)
  Synergy Score inhibition: A1 (A1=0.0001 to <1)
GRANTA-519
  CI50 growth inhibition: T (T=0.5 to <0.7)
  CI50 inhibition: W (W=≥1)
  Synergy Score growth inhibition: A2 (A2=1 to <3)
  Synergy Score inhibition: A1 (A1=0.0001 to <1)
U-2932
  CI50 growth inhibition: U (U=0.7 to <1)
  CI50 inhibition: U (U=0.7 to <1)
  Synergy Score growth inhibition: A2 (A2=1 to <3)
  Synergy Score inhibition: A2 (A2=1 to <3)
RL
  CI50 growth inhibition: W (W=≥1)
  CI50 inhibition: W (W=≥1)
  Synergy Score growth inhibition: A1 (A1=0.0001 to <1)
  Synergy Score inhibition: A1 (A1=0.0001 to <1)
[1]
  CI50 growth inhibition: U (U=0.7 to <1)
OMP-2
  CI50 inhibition: U (U=0.7 to <1)
  Synergy Score growth inhibition: A2 (A2=1 to <3)
  Synergy Score inhibition: A1 (A1=0.0001 to <1)
OCI-Ly3
  CI50 growth inhibition: U (U=0.7 to <1)
  CI50 inhibition: W (W=≥1)
  Synergy Score growth inhibition: A2 (A2=1 to <3)
  Synergy Score inhibition: A1 (A1=0.0001 to <1)
SU-DHL-10-epst
  CI50 growth inhibition: U (U=0.7 to <1)
  CI50 inhibition: U (U=0.7 to <1)
  Synergy Score growth inhibition: A3 (A3=>3)
  Synergy Score inhibition: A2 (A2=1 to <3)
OCI-Ly7
  CI50 growth inhibition: W (W=≥1)
  CI50 inhibition: W (W=≥1)
  Synergy Score growth inhibition: A2 (A2=1 to <3)
  Synergy Score inhibition: A1 (A1=0.0001 to <1)
KARPAS-299
  CI50 growth inhibition: W (W=≥1)
  CI50 inhibition: W (W=≥1)
  Synergy Score growth inhibition: A1 (A1=0.0001 to <1)
  Synergy Score inhibition: A1 (A1=0.0001 to <1)
SU-DHL-4-epst
  CI50 growth inhibition: U (U=0.7 to <1)
  CI50 inhibition: U (U=0.7 to <1)
  Synergy Score growth inhibition: A3 (A3=>3)
  Synergy Score inhibition: A2 (A2=1 to <3)
TMD8
  CI50 growth inhibition: U (U=0.7 to <1)
  CI50 inhibition: U (U=0.7 to <1)
  Synergy Score growth inhibition: A3 (A3=>3)
  Synergy Score inhibition: A2 (A2=1 to <3)
WSU-NHL
  CI50 growth inhibition: U (U=0.7 to <1)
  CI50 inhibition: U (U=0.7 to <1)
  Synergy Score growth inhibition: A2 (A2=1 to <3)
  Synergy Score inhibition: A1 (A1=0.0001 to <1)
Mino
  CI50 growth inhibition: U (U=0.7 to <1)
  CI50 inhibition: U (U=0.7 to <1)
  Synergy Score growth inhibition: A2 (A2=1 to <3)
  Synergy Score inhibition: A1 (A1=0.0001 to <1)

## Nc1cccc2c1CN(C1CCC(=O)NC1=O)C2=O (centres unmarked) [lenalidomide, 3-(4-Amino-1-oxo 1,3-dihydro-2H-isoindol-2-yl)piperidine-2,6-dione]
KARPAS-422
  CI50 growth inhibition: S (S=0.01 to <0.5)
  CI50 inhibition: S (S=0.01 to <0.5)
  Synergy Score growth inhibition: A2 (A2=1 to <3)
  Synergy Score inhibition: A2 (A2=1 to <3)
NCI-H929
  CI50 growth inhibition: T (T=0.5 to <0.7)
  CI50 inhibition: S (S=0.01 to <0.5)
  Synergy Score growth inhibition: A3 (A3=>3)
  Synergy Score inhibition: A3 (A3=>3)
RPMI-8226
  Synergy Score growth inhibition: A1 (A1=0.0001 to <1)
  Synergy Score inhibition: A1 (A1=0.0001 to <1)
Farage
  CI50 growth inhibition: W (W=≥1)
  CI50 inhibition: W (W=≥1)
  Synergy Score growth inhibition: A2 (A2=1 to <3)
  Synergy Score inhibition: A1 (A1=0.0001 to <1)
DOHH-2
  CI50 growth inhibition: S (S=0.01 to <0.5)
  CI50 inhibition: S (S=0.01 to <0.5)
  Synergy Score growth inhibition: A3 (A3=>3)
  Synergy Score inhibition: A2 (A2=1 to <3)
HH
  CI50 growth inhibition: W (W=≥1)
  CI50 inhibition: T (T=0.5 to <0.7)
  Synergy Score growth inhibition: A2 (A2=1 to <3)
  Synergy Score inhibition: A1 (A1=0.0001 to <1)
HBL-1
  CI50 growth inhibition: W (W=≥1)
  Synergy Score growth inhibition: A1 (A1=0.0001 to <1)
  Synergy Score inhibition: A1 (A1=0.0001 to <1)
Jeko-1
  CI50 growth inhibition: S (S=0.01 to <0.5)
  CI50 inhibition: T (T=0.5 to <0.7)
  Synergy Score growth inhibition: A2 (A2=1 to <3)
  Synergy Score inhibition: A2 (A2=1 to <3)
GRANTA-519
  Synergy Score growth inhibition: A1 (A1=0.0001 to <1)
  Synergy Score inhibition: A1 (A1=0.0001 to <1)
U-2932
  CI50 growth inhibition: U (U=0.7 to <1)
  Synergy Score growth inhibition: A1 (A1=0.0001 to <1)
  Synergy Score inhibition: A1 (A1=0.0001 to <1)
RL
  Synergy Score growth inhibition: A1 (A1=0.0001 to <1)
  Synergy Score inhibition: A1 (A1=0.0001 to <1)
[1]
  CI50 growth inhibition: S (S=0.01 to <0.5)
OMP-2
  Synergy Score growth inhibition: A2 (A2=1 to <3)
  Synergy Score inhibition: A1 (A1=0.0001 to <1)
OCI-Ly3
  CI50 growth inhibition: W (W=≥1)
  Synergy Score growth inhibition: A1 (A1=0.0001 to <1)
  Synergy Score inhibition: A1 (A1=0.0001 to <1)
SU-DHL-10-epst
  CI50 growth inhibition: T (T=0.5 to <0.7)
  CI50 inhibition: T (T=0.5 to <0.7)
  Synergy Score growth inhibition: A2 (A2=1 to <3)
  Synergy Score inhibition: A2 (A2=1 to <3)
OCI-Ly7
  Synergy Score growth inhibition: A1 (A1=0.0001 to <1)
  Synergy Score inhibition: A1 (A1=0.0001 to <1)
KARPAS-299
  Synergy Score growth inhibition: A1 (A1=0.0001 to <1)
  Synergy Score inhibition: A1 (A1=0.0001 to <1)
SU-DHL-4-epst
  CI50 growth inhibition: W (W=≥1)
  CI50 inhibition: T (T=0.5 to <0.7)
  Synergy Score growth inhibition: A2 (A2=1 to <3)
  Synergy Score inhibition: A1 (A1=0.0001 to <1)
TMD8
  CI50 growth inhibition: S (S=0.01 to <0.5)
  CI50 inhibition: S (S=0.01 to <0.5)
  Synergy Score growth inhibition: A3 (A3=>3)
  Synergy Score inhibition: A3 (A3=>3)
WSU-NHL
  CI50 growth inhibition: T (T=0.5 to <0.7)
  CI50 inhibition: S (S=0.01 to <0.5)
  Synergy Score growth inhibition: A3 (A3=>3)
  Synergy Score inhibition: A2 (A2=1 to <3)
Mino
  CI50 growth inhibition: T (T=0.5 to <0.7)
  CI50 inhibition: W (W=≥1)
  Synergy Score growth inhibition: A2 (A2=1 to <3)
  Synergy Score inhibition: A1 (A1=0.0001 to <1)
